From BindingDB's records for doi:10.1021/acs.jmedchem.5b00354 (Florida Atlantic University, 2015) come the findings set out here.

The nature of this assay: Inhibition of ADAM17 in human A549 cells assessed as potentiation of gefitinib-mediated inhibition of cell viability by measuring gefitinib IC50 at 40 uM incubated for 1 hr followed by gefitinib addition measured after 72 hrs by CellTiter-Glo assay (Rvb = 8.4 microM).

For the compound `O=C1NC[C@@H](Cc2ccc(O)cc2)N(C[C@@H]2CCCN2C[C@@H](Cc2ccc3ccccc3c2)N2C[C@H](Cc3ccc(O)cc3)N(CCC34CC5CC(CC(C5)C3)C4)C(=O)C2=O)C1=O`, the IC50 – broadly, the concentration needed to halve the response being measured – was 1900 nM.
